In patent US20240150398A1, “PEPTIDES AND CONJUGATES THEREOF AS ACE-2 AND S1 SUBUNIT MIMICS AGAINST SEVERE ACUTE RESPIRATORY SYNDROME CORONAVIRUS-2 (SARS-COV2) INFECTION” (priority 2020, published 2024):

Target: interaction between ACE-2 receptor and spike S1 protein of SARS-CoV2 (Severe acute respiratory syndrome coronavirus 2, UniProt P0DTC2)

Sequence | interaction between ACE-2 receptor and spike S1 protein in presence of peptide
DKFNHEAEDLFY [Peptide 4] | blocked
QTFDKNHEDLYLQAKQLK [Peptide 3] | blocked
